Values quoted from earlier work, collected in publication PMC7395068, “The evolution of strategies to minimise the risk of human drug-induced liver injury (DILI) in drug discovery and development” (Archives of Toxicology, 2020).
Where two headings read alike, the source gives them in different places.

Legend:
[1] = test system: isolated mouse liver mitochondria; details: cited from earlier work
[2] = cited from earlier work
[3] = In vitro Assay, ref Porceddu 2012
[4] = isolated mouse liver mitochondria, EC20<=2uM, ref Porceddu 2012

| SMILES | in vitro data EC2<=1x Cmax [1, 3] | in vitro data EC20<=2uM [1, 3] | In vivo DILI ([2]; in vivo) | in vitro data EC20<=2uM [1, 4] | In vivo DILI ([2]; ref Porceddu 2012) | in vitro data EC20<=2uM [1] |
| --- | --- | --- | --- | --- | --- | --- |
| Nc1c(Br)cc(Br)cc1CN[C@H]1CC[C@H](O)CC1 [Ambroxol] | -VE |  |  |  |  |  |
| Cc1cc(=O)n(-c2ccccc2)n1C [Antipyrine] | +VE | -VE | -VE |  |  |  |
| O=C(/C=C/c1ccc(O)c(O)c1)c1ccc(O)cc1O [Butein] |  |  |  | +VE |  |  |
| COc1cc(CNC(=O)CCCC/C=C/C(C)C)ccc1O [Capsaicin] | -VE | +VE |  |  | -VE |  |
| O=P(O)(O)C(Cl)(Cl)P(=O)(O)O [Clodronate] | -VE | -VE |  |  | -VE |  |
| COc1cc(/C=C/C(=O)CC(=O)/C=C/c2ccc(O)c(OC)c2)ccc1O [Curcumin] | -VE |  |  |  |  |  |
| Clc1ccc(COC(Cn2ccnc2)c2ccc(Cl)cc2Cl)cc1 (stereo not shown) [Econazole] | +VE | +VE |  |  | +VE |  |
| CCOC(=O)c1ccc(O)cc1 [Ethyl paraben] |  |  |  |  |  | -VE |
| O=C(O)c1ccccc1Nc1cccc(C(F)(F)F)c1 [Flufenamic acid] | +VE | +VE |  |  | +VE |  |
| O=C(O)c1cc(O)c(O)c(O)c1 [Gallic acid] | +VE |  |  |  |  |  |
| Cc1cc2c(C(C)C)c(O)c(O)c(C=O)c2c(O)c1-c1c(C)cc2c(C(C)C)c(O)c(O)c(C=O)c2c1O [Gossypol] |  | +VE |  |  | +VE |  |
| O=C(O)c1nn(Cc2ccc(Cl)cc2Cl)c2ccccc12 [Lonidamine] | +VE | +VE |  |  | +VE |  |
| CCOC(=O)[N-]c1cn(N2CCOCC2)n[o+]1 [Molsidomine] | -VE | -VE |  |  | -VE |  |
| CO[C@]12C[C@@H](COC(=O)c3cncc(Br)c3)CN(C)[C@@H]1Cc1cn(C)c3cccc2c13 [Nicergoline] | -VE | +VE |  |  | -VE |  |
| Oc1cc(O)cc(O)c1 [Phloroglucinol] |  |  |  | -VE |  |  |
| Oc1ccc(/C=C/c2cc(O)cc(O)c2)cc1 [Resveratrol] | -VE |  |  |  |  |  |
| O=C1NS(=O)(=O)c2ccccc21 [Saccharin] | +VE | -VE |  |  | +VE |  |
| OC[C@H]1O[C@@](CO)(O[C@H]2O[C@H](CO)[C@@H](O)[C@H](O)[C@H]2O)[C@@H](O)[C@@H]1O [Sucrose] |  |  |  |  |  | -VE |
| Cc1c(Cl)cccc1Nc1ccccc1C(=O)O [Tolfenamic acid] | +VE | +VE |  |  | +VE |  |
| C[C@@H]1O[C@@H](OC[C@H]2O[C@@H](Oc3c(-c4ccc(OCCO)c(OCCO)c4)oc4cc(OCCO)cc(O)c4c3=O)[C@H](O)[C@@H](O)[C@@H]2O)[C@H](O)[C@H](O)[C@H]1O [Troxerutin] | -VE | +VE |  |  | -VE |  |
